Structures can show the parent of a compound that is named as a salt. Where two headings read alike, the source gives them in different places. Square brackets hold non-standard residues; d marks the D form. Peptide text beside a SMILES is read from it. * marks the point of attachment. Fmoc = O=C(OCC1c2ccccc2-c2ccccc21)*; dAllylGly = C=CC[C@@H](N)C(=O)O; AllylGly = C=CC[C@H](N)C(=O)O
Legend:
E.f820 = experiment: Antibacterial screening (MIC) of compounds of Example 2, E.f820; assay type: cell-based, Enterrococci faecium; conditions: Example 2 compounds, fully vancomycin-resistant strain E.f820; for MIC: read-out: Antibacterial activity μg/mL, E.f820
Procedure: (§1) • All assays used the Staphylococcus aureus strain ATCC 6538P. • Assays described in Chapter 5 additionally used the vancomycin-resistant enterococci and vancomycin-sensitive enterococci strains Ef243, Ef449, Ef820 and Ef487. Culture Media • Mueller-Hinton Broth Medium (MHB): MHB (Oxoid CM405) was prepared with final concentrations of […] MgCl2 and 2 μg/mL CaCl2. Culture medium was pre-warmed for approximately 2-3 h at 37° C. before use. • Mueller-Hinton Agar Medium (MHA): MMB containing 1.5% Agar (Merck Agar 1.01614). Maintenance of Bacteria • From a thawed cryovial, the bacteria was streaked onto MHA and the plate incubated overnight at 37° C. • From this plate, 10 cryovials were prepared by looping several colonies into 0.5 mL of 20% glycerol solution. The cryovials were immediately stored at −140° C. Preparation of Seed Cultures • A cryovial was removed from −140° C. storage and thawed at room temperature. • An MHA plate was streaked with a loopful of bacterial suspension and incubated overnight at 37° C. to create a parent plate (P1). • A daughter plate (D1) was streaked from the parent plate and incubated overnight at 37° C. […] The second parent plate (P2) was used to generate two additional daughter plates using the procedure outlined above before being discarded. • Cryovials were used twice to prepare parent plates (P1 and P2) before being discarded. […] A vancomycin control set (triplicate) and a compound negative control set (triplicate) were also included on each plate (FIG. 1). • The inoculated culture medium was incubated at 37° C. for 30 min, with shaking at 130 rpm. • Using a multichannel pipette, the contents of the first row were mixed before 50 μL was transferred to the second row. The pipette tips were changed and the process repeated by 50 μL of the mixed broth solutions in the second row being transferred to the third row. This process was repeated until the last row contained either the diluted test compound or a control (vancomycin or compound-negative). […] Antibacterial Testing of Compounds of Example 2 Introduction
(§2) The specific testing procedures and protocols are outlined in the section “Antibacterial Screening Methodology for the Compounds of Example 2”.
(§3) Vancomycin was used as the standard/control.

E.f243 = experiment: Antibacterial screening (MIC) of compounds of Example 2, E.f243; assay type: cell-based, Enterococcus faecium; conditions: Enterococcus faecium; Example 2 compounds; enterococci strain E.f243; read-out: Antibacterial activity μg/mL, E.f243
Procedure: as §1, §2, §3

[1] = tested on: Staphylococcus aureus strain ATCC 6538P; experiment: Antibacterial screening (MIC) of compounds of Example 2, S. aureus, Mueller-Hinton broth; assay type: cell-based
Procedure: Antibacterial Screening Methodology for Compounds of Example 2
as §1, §2
The antibacterial activity results are measured by minimum inhibitory concentration (MIC), which is the lowest concentration of compound necessary to prevent bacterial growth.

E.f449 = experiment: Antibacterial screening (MIC) of compounds of Example 2, E.f449; assay type: cell-based, Enterococcus faecium; conditions: Enterococcus faecium; Example 2 compounds; enterococci strain E.f449; read-out: Antibacterial activity μg/mL, E.f449
Procedure: as §1, §2, §3

E.f987 = experiment: Antibacterial screening (MIC) of compounds of Example 2, E.f987; assay type: cell-based, Enterococcus faecium; conditions: Enterococcus faecium; Example 2 compounds; enterococci strain E.f987; read-out: Antibacterial activity μg/mL, E.f987
[2] = Staphylococcus aureus, ATCC6538P, Example 2 compounds (linear cationic peptides), S. aureus, vancomycin-susceptible strain, read-out: Antibacterial activity μg/mL, S.a
[3] = Staphylococcus aureus, ATCC6538P, 18 h, read-out: Antibacterial activity (MIC μg/mL)
[4] = Staphylococcus aureus, ATCC6538P, Example 2 compounds, S. aureus, 18 h, 37° C., read-out: Antibacterial activity (MIC μg/mL)

Molecule | MIC (E.f820) | MIC (E.f243) | MIC [1, 2] | MIC (E.f449) | MIC (E.f987) | MIC [1, 4] | other results
C=CCOc1ccc(C[C@H](NC(=O)[C@@H](CCCNC(=N)N)NC(=O)COc2ccc3ccccc3c2-c2c(OCC=C)ccc3ccccc23)C(=O)OC)cc1.Cl (atropisomer, axis not shown) [Compound 120] | 62.5 µg/mL | 62.5 µg/mL | 3.9 µg/mL | 62.5 µg/mL | 62.5 µg/mL |  | 
C=CCOc1ccc(C[C@H](NC(=O)[C@@H](CCCNC(=N)N)NC(=O)COc2ccc3ccccc3c2-c2c(O)ccc3ccccc23)C(=O)OC)cc1.Cl (atropisomer, axis not shown) [Compound 121, Methyl(2S,5R)-2-allyloxybenzyl-3,6-diaza-8-(2-[2′-hydroxy-{1,1′}-(S)-binaphthalen-2-yloxy])-5-(3-[guanidino]propyl)-4,7-dioxooctanoate] | 125 µg/mL | 125 µg/mL | 7.8 µg/mL | 125 µg/mL | > 125 µg/mL |  | 
C=CCOc1ccc2ccccc2c1-c1c(OCC(=O)N[C@H](CCCCN)C(=O)N[C@H](CCCNC(=N)N)C(=O)N[C@@H](CC=C)C(=O)OCc2ccccc2)ccc2ccccc12.Cl.Cl (atropisomer, axis not shown) [Compound 132] | 31.3 µg/mL | 31.3 µg/mL | 3.9 µg/mL | 31.3 µg/mL | 62.5 µg/mL |  | 
C=CC[C@H](NC(=O)[C@@H](CCCNC(=N)N)NC(=O)[C@@H](CCCCN)NC(=O)COc1ccc2ccccc2c1-c1c(OC)ccc2ccccc12)C(=O)OCc1ccccc1.Cl.Cl (atropisomer, axis not shown) [Compound 135] | 62.5 µg/mL | 125 µg/mL | 7.8 µg/mL | 62.5 µg/mL | 125 µg/mL |  | 
C=CC[C@H](NC(=O)[C@@H](CCCNC(=N)N)NC(=O)[C@@H](CCCCN)NC(=O)COc1ccc2ccccc2c1-c1c(O)ccc2ccccc12)C(=O)OCc1ccccc1.Cl.Cl (atropisomer, axis not shown) [Compound 136, Benzyl(2S,5R,8R)-2-allyl-3,6,9-triaza-8-(butylamino)-5-(3-guanidinopropyl)-11-(2-[2′-hydroxy-{1,1′}-(S)-binaphthalen-2-yloxy])-4,7,10-trioxoundecanoate dihydrochloride] | 62.5 µg/mL | 125 µg/mL | 7.8 µg/mL | 62.5 µg/mL | 125 µg/mL |  | 
C=CC[C@H](NC(=O)[C@@H](CCCNC(=N)N)NC(=O)[C@@H](CCCCN)NC(=O)COc1ccc2ccccc2c1-c1c(OCCCc2ccccc2)ccc2ccccc12)C(=O)OCc1ccccc1.Cl.Cl (atropisomer, axis not shown) [Compound 137] | 31.3 µg/mL | 62.5 µg/mL | 3.9 µg/mL | 31.3 µg/mL | 62.5 µg/mL |  | 
C=CC[C@H](NC(=O)[C@@H](CCCNC(=N)N)NC(=O)[C@@H](CCCCN)NC(=O)COc1ccc2ccccc2c1-c1c(OCCC(C)C)ccc2ccccc12)C(=O)OCc1ccccc1.Cl.Cl (atropisomer, axis not shown) [Compound 138] | 15.6 µg/mL | 31.3 µg/mL | 3.9 µg/mL | 15.6 µg/mL | 31.3 µg/mL |  | 
COC(=O)[C@@H]1CC=CCOc2ccc(cc2)C[C@H](NC(C)=O)C(=O)N[C@H](CCCCN)C(=O)N1 [Compound 12, (7S,10R,13S,4E/Z)-13-Acetamido-10-(4-aminobutyl)-8,11-diaza-7-methoxycarbonyl-2-oxa-9,12-dioxo-1(1,4)phenylenacyclotetradecaphane-4-ene hydrochloride] |  |  |  |  |  |  | MIC [1, 3]: 62.5 µg/mL
COC(=O)[C@@H]1CC=CCOc2ccc(cc2)C[C@@H](NC(C)=O)C(=O)N[C@@H](CCCNC(=N)N)C(=O)N1.Cl [Compound 56, (7S,10S,13R,4E/Z)-13-Acetamido-8,11-diaza-10-(3-[amino{imino}methylamino]propyl)-7-methoxycarbonyl-2-oxa-9,12-dioxo-1(1,4)phenylenacyclotetradecaphane-4-ene] |  |  |  |  |  | 125 µg/mL | 
COC(=O)[C@@H]1Cc2ccc(cc2)OCC=CCOc2ccc(cc2)C[C@H](NC(C)=O)C(=O)N[C@H](CCCCN)C(=O)N1.Cl [Compound 65, (10S,13R,16S,4E/Z)-16-Acetamido-13-(4-aminobutyl)-11,14-diaza-10-methoxycarbonyl-2,7-dioxa-12,15-dioxo-1(1,4),8(4,1)-diphenylenecycloheptadecaphane-4-ene] |  |  |  |  |  | 15.6 µg/mL | 
C=CC[C@H](NC(=O)[C@@H](CCCNC(=N)N)NC(=O)OCC1c2ccccc2-c2ccccc21)C(=O)OC.Cl [Compound 69, Methyl(2S,5R)-2-allyl-3-aza-5-(9H-9-fluorenylmethyloxycarboxamido)-8-(guanidino)-4-oxooctanoate hydrochloride] (Fmoc-[dR]-[AllylGly]-OMe) |  |  |  |  |  | 125 µg/mL | 
C=CC[C@H](NC(=O)[C@H](CCCNC(=N)N)NC(=O)OCC1c2ccccc2-c2ccccc21)C(=O)OC.Cl [Compound 70, Methyl(2S,5S)-2-allyl-3-aza-5-(9H-9-fluorenylmethyloxycarboxamido)-8-(guanidino)-4-oxooctanoate hydrochloride] (Fmoc-Arg-[AllylGly]-OMe) |  |  |  |  |  | 125 µg/mL | 
C=CC[C@@H](NC(=O)[C@@H](CCCNC(=N)N)NC(=O)OCC1c2ccccc2-c2ccccc21)C(=O)OC.Cl [Compound 71, Methyl(2R,5R)-2-allyl-3-aza-5-(9H-9-fluorenylmethyloxycarboxamido)-8-(guanidino)-4-oxooctanoate hydrochloride] (Fmoc-[dR]-[dAllylGly]-OMe) |  |  |  |  |  | 125 µg/mL | 
C=CC[C@@H](NC(=O)[C@H](CCCNC(=N)N)NC(=O)OCC1c2ccccc2-c2ccccc21)C(=O)OC.Cl [Compound 72, Methyl(2R,5S)-2-allyl-3-aza-5-(9H-9-fluorenylmethyloxycarboxamido)-8-(guanidino)-4-oxooctanoate hydrochloride] (Fmoc-Arg-[dAllylGly]-OMe) |  |  |  |  |  | 125 µg/mL | 
C=CCOc1ccc(C[C@H](NC(=O)[C@@H](CCCCN)NC(=O)OCC2c3ccccc3-c3ccccc32)C(=O)OC)cc1.Cl [Compound 73, Methyl(2S,5R)-2-(4-allyloxybenzyl)-9-amino-3-aza-5-(9H-9-fluorenylmethyloxycarboxamido)-4-oxononanoate hydrochloride] |  |  |  |  |  | 31.3 µg/mL | 
C=CCOc1ccc(C[C@H](NC(=O)[C@H](CCCCN)NC(=O)OCC2c3ccccc3-c3ccccc32)C(=O)OC)cc1.Cl [Compound 74, Methyl(2S,5S)-2-(4-allyloxybenzyl)-9-amino-3-aza-5-(9H-9-fluorenylmethyloxycarboxamido)-4-oxononanoate hydrochloride] |  |  |  |  |  | 15.6 µg/mL | 
C=CCOc1ccc(C[C@H](NC(=O)[C@@H](CCCNC(=N)N)NC(=O)OCC2c3ccccc3-c3ccccc32)C(=O)OC)cc1.Cl [Compound 75] |  |  |  |  |  | 7.8 µg/mL | MIC ([1]; Example 2 compounds, S. aureus, best activity named in the text): 7.8 µg/mL
C=CCOc1ccc(C[C@H](NC(C)=O)C(=O)N[C@H](CCCCN)C(=O)N[C@@H](CC=C)C(=O)OC)cc1 [Compound 77, hydrochloride] |  |  |  |  |  |  | MIC [1, 3]: 125 µg/mL
C=CCOc1ccc(C[C@H](NC(C)=O)C(=O)N[C@H](CCCCN)C(=O)N[C@@H](Cc2ccc(OCC=C)cc2)C(=O)OC)cc1.Cl [Compound 83, Methyl(2S,5R,8S)-2,8-di(4-allyloxybenzyl)-5-(4-aminobutyl)-3,6,9-triaza-4,7,10-trioxoundecanoate hydrochloride] |  |  |  |  |  | 125 µg/mL | 
C=CCOc1ccc2ccccc2c1-c1c(OCC(=O)N[C@H](CCCN)C(=O)Nc2cccc(C(=O)NOCc3ccccc3)c2)ccc2ccccc12.Cl [Compound 161] |  |  |  |  |  |  | Antibacterial activity μg/mL, E.f820 (E.f820): 62.5 µg/mL; Antibacterial activity μg/mL, S.a ([1]; Example 2 compounds (linear cationic peptides), S. aureus, vancomycin-susceptible strain): 15.6 µg/mL
Methyl(2S,5S)-2-(4-allyloxybenzyl)-3-aza-5-(9H-9-fluorenylmethylcarboxamido)-8-guanidino-4-oxononanoate hydrochloride [Compound 76] |  |  |  |  |  |  | Antibacterial activity (MIC μg/mL) ([1]; Example 2 compounds, S. aureus, 18 h, 37° C.): 15.6 µg/mL

Source: patent US8039430B2 (University of Wollongong, priority 2005, dated 2011)
